What was measured:
Assay type in all cases: in vivo
Plutella xylostella = test: Diamond back moth (Plutella xylostella) cabbage leaf-dip test; conditions: 3rd instar larvae on dipped cabbage leaves, 72 hours after treatment, read-out: mortality in comparison with untreated controls
Protocol: The active compound was dissolved at the desired concentration in a mixture of 1:1 (vol:vol) distilled water:aceteone. Surfactant (Kinetic HV) was added at a rate of 0.01% (vol/vol).The test solution was prepared at the day of use.
Leaves of cabbage were dipped in test solution and air-dried. Treated leaves were placed in petri dishes lined with moist filter paper and inoculated with ten 3rd instar larvae. Mortality was recorded 72 hours after treatment. Feeding damages were also recorded using a scale of 0-100%.

Myzus persicae = test: Green peach aphid (Myzus persicae) systemic test, artificial diet in microtiter plates; conditions: 72 h, adult aphids on treated artificial diet, 3 days, read-out: mortality in comparison with untreated controls
Excerpt: For evaluating control of green peach aphid (Myzus persicae) through systemic means the test unit consisted of 96-well-microtiter plates containing liquid artificial diet under an artificial membrane.
The compounds were formulated using a solution containing 75% v/v water and 25% v/v DMSO. Different concentrations of formulated compounds were pipetted into the aphid diet, using a custom built pipetter, at two replications.
After application, 5-8 adult aphids were placed on the artificial membrane inside the microtiter plate wells. The aphids were then allowed to suck on the treated aphid diet and incubated at about 23±1 ° C. and about 50±5% relative humidity for 3 days. Aphid mortality and fecundity was then visually assessed.

Megoura viciae = test: Vetch aphid (Megoura viciae) broad bean leaf disk test; conditions: foliar, 120 h, adult aphids on sprayed broad bean leaf disks, 5 days, read-out: mortality in comparison with untreated controls
Protocol: For evaluating control of vetch aphid (Megoura viciae) through contact or systemic means the test unit consisted of 24-well-microtiter plates containing broad bean leaf disks.
The compounds were formulated using a solution containing 75% v/v water and 25% v/v DMSO. Different concentrations of formulated compounds were sprayed onto the leaf disks at 2.5 μl, using a custom built micro atomizer, at two replications.
After application, the leaf disks were air-dried and 5- 8 adult aphids placed on the leaf disks inside the microtiter plate wells. The aphids were then allowed to suck on the treated leaf disks and incubated at about 23±1° C. and about 50±5% relative humidity for 5 days. Aphid mortality and fecundity was then visually assessed.

Heliothis virescens = test: Tobacco budworm (Heliothis virescens) insect diet/egg microtiter test; conditions: 120 h, egg and larval mortality on sprayed insect diet, 5 days, read-out: mortality in comparison with untreated controls
Protocol: For evaluating control of tobacco budworm (Heliothis virescens) the test unit consisted of 96-well-microtiter plates containing an insect diet and 15-25 H. virescens eggs.
The compounds were formulated using a solution containing 75% v/v water and 25% v/v DMSO. Different concentrations of formulated compounds were sprayed onto the insect diet at 10 μl, using a custom built micro atomizer, at two replications.
After application, microtiter plates were incubated at about 28+1° C. and about 80+5% relative humidity for 5 days. Egg and larval mortality was then visually assessed.

Anthonomus grandis = test: Boll weevil (Anthonomus grandis) insect diet/egg microtiter test; conditions: 120 h, egg and larval mortality on sprayed insect diet, 5 days, read-out: mortality in comparison with untreated controls
Protocol: For evaluating control of boll weevil (Anthonomus grandis) the test unit consisted of 96-well-microtiter plates containing an insect diet and 5-10 A. grandis eggs.
(§1) The compounds were formulated using a solution containing 75% v/v water and 25% v/v DMSO. Different concentrations of formulated compounds were sprayed onto the insect diet at 5 μl, using a custom built micro atomizer, at two replications.
After application, microtiter plates were incubated at about 25±1° C. and about 75±5% relative humidity for 5 days. Egg and larval mortality was then visually assessed.

Ceratitis capitata = test: Mediterranean fruitfly (Ceratitis capitata) insect diet/egg microtiter test; conditions: 120 h, egg and larval mortality on sprayed insect diet, 5 days, read-out: mortality in comparison with untreated controls
Protocol: For evaluating control of Mediterranean fruitfly (Ceratitis capitata) the test unit consisted of microtiter plates containing an insect diet and 50-80 C. capitata eggs.
as §1
After application, microtiter plates were incubated at about 28±1° C. and about 80±5% relative humidity for 5 days. Egg and larval mortality was then visually assessed.

Dichromothrips corbetti = test: Orchid thrips (dichromothrips corbetti) floral-immersion test; conditions: adult thrips on dipped orchid petals, 72 hours after treatment, read-out: mortality in comparison with untreated controls
Protocol: Dichromothrips corbetti adults used for bioassay were obtained from a colony maintained continuously under laboratory conditions. For testing purposes, the test compound is diluted in a 1:1 mixture of acetone:water (vol:vol), plus Kinetic HV ata rate of 0.01% v/v.
Thrips potency of each compound was evaluated by using a floral-immersion technique. All petals of individual, intact orchid flowers were dipped into treatment solution and allowed to dry in Petri dishes. Treated petals were placed into individual re-sealable plastic along with about 20 adult thrips. All test arenas were held under continuous light and a temperature of about 28° C. for duration of the assay. After 3 days, the numbers of live thrips were counted on each petal. The percent mortality was recorded 72 hours after treatment.

Nephotettix virescens = test: Rice green leafhopper (Nephotettix virescens) sprayed rice seedling test; conditions: adults on sprayed rice seedlings, after 72 hours, read-out: mortality in comparison with untreated controls
Protocol: Rice seedlings were cleaned and washed 24 hours before spraying. The active compounds were formulated in 1:1 acetone:water (vol:vol), and 0.01% vol/vol surfactant (Kinetic HV) was added. Potted rice seedlings were sprayed with 5-6 ml test solution, air dried, covered with Mylar cages cages and inoculated with 10 adults. Treated rice plants were kept at about 28-29° C. and relative humidity of about 50-60%. Percent mortality was recorded after 72 hours.

Tetranychus kanzawai = test: Red spider mite (Tetranychus kanzawai) sprayed cowpea bean test; conditions: mites on sprayed cowpea beans, 72 hours after treatment, read-out: mortality in comparison with untreated controls
Protocol: The active compound was dissolved at the desired concentration in a mixture of 1:1 (vol:vol) distilled water:acetone. Add surfactant (Kinetic HV) was added at a rate of 0.01% (vol/vol).The test solution was prepared at the day of use.
Potted cowpea beans of 4-5 days of age were cleaned with tap water and sprayed with 1-2 ml of the test solution using air driven hand atomizer. The treated plants were allowed to air dry and afterwards inoculated with 30 or more mites by clipping a cassava leaf section from rearing population. Treated plants were placed inside a holding room at about 25-27° C. and about 50-60% relative humidity. Percent mortality was assessed 72 hours after treatment.

Spodoptera eridania = test: Southern armyworm (Spodoptera eridania) sprayed lima bean foliage test; conditions: foliar, 96 h, larvae on sprayed lima bean plants, 4 days after treatment, read-out: mortality in comparison with untreated controls
Protocol: The active compounds were formulated in cyclohexanone as a 10,000 ppm solution supplied in tubes. The tubes were inserted into an automated electrostatic sprayer equipped with an atomizing nozzle and they served as stock solutions for which lower dilutions were made in 50% acetone:50% water (v/v). A nonionic surfactant (Kinetic®) was included in the solution at a volume of 0.01% (v/v).
Lima bean plants (variety Sieva) were grown 2 plants to a pot and selected for treatment at the 1st true leaf stage. Test solutions were sprayed onto the foliage by an automated electrostatic plant sprayer equipped with an atomizing spray nozzle. The plants were dried in the sprayer fume hood and then removed from the sprayer. Each pot was placed into perforated plastic bags with a zip closure. About 10 to 11 armyworm larvae were placed into the bag and the bags zipped closed. Test plants were maintained in a growth room at about 25° C. and about 20-40% relative humidity for 4 days, avoiding direct exposure to fluorescent light (24 hour photoperiod) to prevent trapping of heat inside the bags. Mortality and reduced feeding were assessed 4 days after treatment, compared to untreated control plants.

Nezara viridula = test: Green soldier stink bug (Nezara viridula) sprayed soybean pod test; conditions: 120 h, late 3rd instar on sprayed soybean pods, after 5 days, read-out: mortality in comparison with untreated controls
Protocol: The active compound was dissolved at the desired concentration in a mixture of 1:1 (vol:vol) distilled water:acetone. Surfactant (Kinetic HV) was added at a rate of 0.01% (vol/vol). The test solution was prepared at the day of use.Soybean pods were placed in glass Petri dishes lined with moist filter paper and inoculated with ten late 3rd instar N. vindula. Using a hand atomizer, approximately 2 ml solution is sprayed into each Petri dish. Assay arenas were kept at about 25° C. Percent mortality was recorded after 5 days.

Halyomorpha halys = test: Brown marmorated stink bug (Halyomorpha halys) sprayed peanut/soybean seed test; conditions: 120 h, adult stage, sprayed cups with peanuts and soybean seeds, after 5 days, read-out: mortality in comparison with untreated controls
Protocol: The active compound was dissolved at the desired concentration in a mixture of 1:1 (vol:vol) distilled water:acetone. Surfactant (Kinetic HV) was added at a rate of 0.01% (vol/vol). The test solution was prepared at the day of use.
Row peanuts and soybean seeds were placed into microwavable plastic cups and inoculated with five adult stage H. halys. Using a hand atomizer, approximately 1 ml solution is sprayed into each cup, insects and food present. A water source was provided (cotton wick with water). Each treatment is replicated 4-fold. Assay arenas are kept at about 25° C. Percent mortality was recorded after 5 days.

CCC(=O)N1CC2(C1)OCc1cc(C3=CCC(c4cc(Cl)c(F)c(Cl)c4)(C(F)(F)F)C3)ccc12 (centres unmarked) [Compound I-1-1, 1-[6-[4-(3,5-dichloro-4-fluoro-phenyl)-4-(trifluoromethyl)cyclopenten-1-yl]spiro[1H-isobenzofuran-3,3′-azetidine]-1′-yl]propan-1-one]
≥ 75%: mortality at 300 ppm (Plutella xylostella) | mortality at 2500 ppm (Myzus persicae) | mortality at 2500 ppm (Megoura viciae) | mortality at 2500 ppm (Heliothis virescens) | mortality at 2500 ppm (Anthonomus grandis) | mortality at 2500 ppm (Ceratitis capitata) | mortality at 300 ppm (Dichromothrips corbetti) | mortality at 300 ppm (Nephotettix virescens) | mortality at 300 ppm (Tetranychus kanzawai) | mortality at 10 ppm (Spodoptera eridania) | mortality at 300 ppm (Nezara viridula) | mortality at 100 ppm (Halyomorpha halys)

CC(=O)N1CC2(C1)OCc1cc(C3=CSC(c4cc(Cl)c(F)c(Cl)c4)(C(F)(F)F)C3)ccc12 (centres unmarked) [Compound I-2-2, 1-[6-[2-(3,5-dichloro-4-fluoro-phenyl)-2-(trifluoromethyl)-3H-thiophen-4-yl]spiro[1H-isobenzofuran-3,3′-azetidine]-1′-yl]ethanone]
≥ 75%: mortality at 300 ppm (Plutella xylostella) | mortality at 2500 ppm (Myzus persicae) | mortality at 2500 ppm (Megoura viciae) | mortality at 2500 ppm (Heliothis virescens) | mortality at 2500 ppm (Anthonomus grandis) | mortality at 300 ppm (Dichromothrips corbetti) | mortality at 300 ppm (Nephotettix virescens) | mortality at 300 ppm (Tetranychus kanzawai) | mortality at 10 ppm (Spodoptera eridania) | mortality at 300 ppm (Nezara viridula) | mortality at 100 ppm (Halyomorpha halys)

— patent US20190077809A1, “Spirocyclic Derivatives” (BASF SE, priority 2016, published 2019)
